These results are taken from patent publication US11274332B2, “Methods of administering 3,4-diaminopyridine” (SERB SA, priority 2011, dated 2022).

Assay [1] addresses T1, cloned human Kv1.4 potassium channel (Homo sapiens, UniProt P22459).
T1 construct: expressed in transfected cells
Description: PatchXpress inhibition of cloned human Kv1.4 in HEK293 cells (Example 6). Format: cell-based. Conditions: hKv1.4, up to 3000 μM. From the text: (§1) The objective of this study was to examine the in vitro effects and determine the […] of 3,4-DAP phosphate and the metabolite N-(4-aminopyridin-3-yl) acetamide HCl on the following ion channels: cloned human Kv1.1 potassium channel (encoded by the human KCNA1 gene, expressed in HEK293 cells), cloned human Kv1.2 potassium channel (encoded by the human KCNA2 gene, expressed in HEK293 cells), cloned human Kv1.3 potassium channel (encoded by the human KCNA3 gene, expressed in CHO cells), cloned human Kv1.4 potassium channel (encoded by the human KCNA4 gene, expressed in HEK293 cells), cloned human Kv1.5 potassium channel (encoded by the human KCNA5 gene and expressed in CHO cells), responsible for IKur, ultra-rapid delayed rectifier potassium current.
(§2) Chemicals used in solution preparation were purchased from Sigma-Aldrich (St. Louis, Mo.), unless otherwise noted, and were of ACS reagent grade purity or higher. Stock solutions of each test article (100 mM, 30 mM and 1.00 mM 3,4-DAP phosphate and 100 mM N-(4-aminopyridin-3-yl)acetamide) were prepared in sterile water and stored refrigerated. […]
(§3) In preparation for a recording session, intracellular solution was loaded into the intracellular compartments of the Sealchip16. […] After establishment of a whole-cell configuration, membrane currents were recorded using dual-channel patch clamp amplifiers in the PatchXpress®. […]

Assay [2] deals with T2, cloned human Kv1.2 potassium channel (Homo sapiens, UniProt P16389).
T2 construct: expressed in transfected cells
T2 sequence (P16389 whole entry): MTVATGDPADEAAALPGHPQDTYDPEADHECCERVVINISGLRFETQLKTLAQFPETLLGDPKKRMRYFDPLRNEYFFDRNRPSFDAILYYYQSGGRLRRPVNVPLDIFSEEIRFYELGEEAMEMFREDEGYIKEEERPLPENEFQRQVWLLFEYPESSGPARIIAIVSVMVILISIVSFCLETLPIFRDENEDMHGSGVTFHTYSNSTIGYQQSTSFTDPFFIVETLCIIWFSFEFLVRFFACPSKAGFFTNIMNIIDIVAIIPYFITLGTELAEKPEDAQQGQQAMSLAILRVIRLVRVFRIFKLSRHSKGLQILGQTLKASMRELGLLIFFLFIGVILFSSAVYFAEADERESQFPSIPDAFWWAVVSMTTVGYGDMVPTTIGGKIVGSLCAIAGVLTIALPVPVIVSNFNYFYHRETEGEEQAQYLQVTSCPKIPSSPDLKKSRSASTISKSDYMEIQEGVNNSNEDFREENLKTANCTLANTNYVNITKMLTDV
Description: PatchXpress inhibition of cloned human Kv1.2 in HEK293 cells (Example 6). Format: cell-based. To be noted: hKv1.2, up to 3000 μM.
Text: as §1, §2, §3

The structures appear in SMILES notation.

T1 sequence (P22459 whole entry): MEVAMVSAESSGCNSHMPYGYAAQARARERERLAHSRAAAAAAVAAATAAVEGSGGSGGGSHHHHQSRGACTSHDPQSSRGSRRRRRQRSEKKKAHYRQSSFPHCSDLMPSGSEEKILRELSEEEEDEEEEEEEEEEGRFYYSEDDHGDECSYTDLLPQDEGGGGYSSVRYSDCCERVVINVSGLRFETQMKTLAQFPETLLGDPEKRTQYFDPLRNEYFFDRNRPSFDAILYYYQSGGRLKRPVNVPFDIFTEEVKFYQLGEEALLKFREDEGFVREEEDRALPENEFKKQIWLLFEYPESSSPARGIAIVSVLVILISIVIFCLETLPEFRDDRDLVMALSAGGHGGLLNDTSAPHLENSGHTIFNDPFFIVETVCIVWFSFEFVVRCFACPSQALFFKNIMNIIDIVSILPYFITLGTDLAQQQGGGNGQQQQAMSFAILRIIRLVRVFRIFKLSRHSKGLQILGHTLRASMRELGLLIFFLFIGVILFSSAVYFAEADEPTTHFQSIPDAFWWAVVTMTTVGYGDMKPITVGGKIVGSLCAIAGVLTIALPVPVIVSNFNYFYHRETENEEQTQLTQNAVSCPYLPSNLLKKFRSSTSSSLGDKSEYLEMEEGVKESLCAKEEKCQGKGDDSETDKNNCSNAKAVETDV

As to `CC(=O)Nc1cnccc1N` [3-N-acetyl amifampridine, N-(4-aminopyridin-3-yl)acetamide], the “activity on K+ channel” value in assay [1] is “inactive”; in assay [1] (listed as N-acetyl metabolite) it was “not active”; in assay [2], “inactive”; in assay [2] (listed as N-acetyl metabolite), “not active”.
